Results published in ChEMBL document CHEMBL1154622, “Structure-guided design of potent and selective pyrimidylpyrrole inhibitors of extracellular signal-regulated kinase (ERK) using conformational control” (J Med Chem, 2009).

Columns and labels:
[1] = target: Angiopoietin-1 receptor (Homo sapiens) (UniProt Q02763); test: Inhibition of TIE2 at 1 uM
[2] = target: Proto-oncogene tyrosine-protein kinase ROS (Homo sapiens) (UniProt P08922); test: Inhibition of ROS at 1 uM
[3] = target: Serine/threonine-protein kinase D1 (Homo sapiens) (UniProt Q15139); test: Inhibition of PRKD1 at 1 uM
Sequence of Serine/threonine-protein kinase D1 (Homo sapiens) (Q15139 whole entry): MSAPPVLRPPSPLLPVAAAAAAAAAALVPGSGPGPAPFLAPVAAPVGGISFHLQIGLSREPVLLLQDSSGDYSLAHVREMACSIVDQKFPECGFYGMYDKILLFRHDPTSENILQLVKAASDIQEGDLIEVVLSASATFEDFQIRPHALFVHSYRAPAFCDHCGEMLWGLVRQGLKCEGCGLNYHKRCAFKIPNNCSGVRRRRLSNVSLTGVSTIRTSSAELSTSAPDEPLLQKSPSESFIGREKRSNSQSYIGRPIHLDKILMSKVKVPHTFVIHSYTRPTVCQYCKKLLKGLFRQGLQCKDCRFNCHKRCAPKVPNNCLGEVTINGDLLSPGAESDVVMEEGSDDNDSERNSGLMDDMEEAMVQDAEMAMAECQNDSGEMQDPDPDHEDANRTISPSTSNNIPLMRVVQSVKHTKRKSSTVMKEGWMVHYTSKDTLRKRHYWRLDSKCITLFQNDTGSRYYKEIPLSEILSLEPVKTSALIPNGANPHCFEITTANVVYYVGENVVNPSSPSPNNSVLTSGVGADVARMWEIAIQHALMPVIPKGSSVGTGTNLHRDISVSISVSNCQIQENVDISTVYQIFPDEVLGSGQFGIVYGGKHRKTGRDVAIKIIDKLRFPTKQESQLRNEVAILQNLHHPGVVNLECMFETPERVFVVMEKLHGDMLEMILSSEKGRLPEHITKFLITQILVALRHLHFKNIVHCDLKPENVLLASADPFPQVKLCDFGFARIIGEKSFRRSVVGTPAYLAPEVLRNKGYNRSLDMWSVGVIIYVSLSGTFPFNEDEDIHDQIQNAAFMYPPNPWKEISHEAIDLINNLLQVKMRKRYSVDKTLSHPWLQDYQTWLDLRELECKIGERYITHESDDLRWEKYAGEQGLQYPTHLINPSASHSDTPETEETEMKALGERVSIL

Sequence of Angiopoietin-1 receptor (Homo sapiens) (Q02763 whole entry): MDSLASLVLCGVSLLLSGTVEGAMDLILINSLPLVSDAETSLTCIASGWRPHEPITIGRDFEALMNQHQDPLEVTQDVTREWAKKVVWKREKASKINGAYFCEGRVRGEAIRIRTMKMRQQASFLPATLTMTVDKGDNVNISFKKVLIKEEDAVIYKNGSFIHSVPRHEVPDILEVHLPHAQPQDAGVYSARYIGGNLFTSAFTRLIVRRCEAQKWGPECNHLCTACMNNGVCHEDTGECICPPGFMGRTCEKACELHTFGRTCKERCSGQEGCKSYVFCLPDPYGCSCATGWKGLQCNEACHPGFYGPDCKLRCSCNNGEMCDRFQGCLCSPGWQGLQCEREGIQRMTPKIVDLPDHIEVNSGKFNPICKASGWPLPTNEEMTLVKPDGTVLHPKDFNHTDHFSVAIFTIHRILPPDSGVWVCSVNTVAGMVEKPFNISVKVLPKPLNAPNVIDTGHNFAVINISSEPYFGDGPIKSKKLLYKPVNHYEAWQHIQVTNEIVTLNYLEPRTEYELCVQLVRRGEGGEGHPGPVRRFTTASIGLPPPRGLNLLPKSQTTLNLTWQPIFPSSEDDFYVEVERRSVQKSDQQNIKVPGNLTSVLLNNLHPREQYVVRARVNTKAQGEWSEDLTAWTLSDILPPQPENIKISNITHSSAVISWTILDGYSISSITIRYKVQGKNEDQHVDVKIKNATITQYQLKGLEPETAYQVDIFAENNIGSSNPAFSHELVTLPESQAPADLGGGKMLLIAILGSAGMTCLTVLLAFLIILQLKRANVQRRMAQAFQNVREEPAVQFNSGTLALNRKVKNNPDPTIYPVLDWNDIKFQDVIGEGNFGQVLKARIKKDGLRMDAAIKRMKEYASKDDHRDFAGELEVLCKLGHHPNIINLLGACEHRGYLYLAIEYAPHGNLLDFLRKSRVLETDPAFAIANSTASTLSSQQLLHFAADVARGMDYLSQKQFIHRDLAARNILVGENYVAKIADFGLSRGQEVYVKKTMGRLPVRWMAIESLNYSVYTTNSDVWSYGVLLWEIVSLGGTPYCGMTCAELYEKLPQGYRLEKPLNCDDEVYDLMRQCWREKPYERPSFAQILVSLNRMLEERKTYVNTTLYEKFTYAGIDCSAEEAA
Sequence of Proto-oncogene tyrosine-protein kinase ROS (Homo sapiens) (P08922 whole entry): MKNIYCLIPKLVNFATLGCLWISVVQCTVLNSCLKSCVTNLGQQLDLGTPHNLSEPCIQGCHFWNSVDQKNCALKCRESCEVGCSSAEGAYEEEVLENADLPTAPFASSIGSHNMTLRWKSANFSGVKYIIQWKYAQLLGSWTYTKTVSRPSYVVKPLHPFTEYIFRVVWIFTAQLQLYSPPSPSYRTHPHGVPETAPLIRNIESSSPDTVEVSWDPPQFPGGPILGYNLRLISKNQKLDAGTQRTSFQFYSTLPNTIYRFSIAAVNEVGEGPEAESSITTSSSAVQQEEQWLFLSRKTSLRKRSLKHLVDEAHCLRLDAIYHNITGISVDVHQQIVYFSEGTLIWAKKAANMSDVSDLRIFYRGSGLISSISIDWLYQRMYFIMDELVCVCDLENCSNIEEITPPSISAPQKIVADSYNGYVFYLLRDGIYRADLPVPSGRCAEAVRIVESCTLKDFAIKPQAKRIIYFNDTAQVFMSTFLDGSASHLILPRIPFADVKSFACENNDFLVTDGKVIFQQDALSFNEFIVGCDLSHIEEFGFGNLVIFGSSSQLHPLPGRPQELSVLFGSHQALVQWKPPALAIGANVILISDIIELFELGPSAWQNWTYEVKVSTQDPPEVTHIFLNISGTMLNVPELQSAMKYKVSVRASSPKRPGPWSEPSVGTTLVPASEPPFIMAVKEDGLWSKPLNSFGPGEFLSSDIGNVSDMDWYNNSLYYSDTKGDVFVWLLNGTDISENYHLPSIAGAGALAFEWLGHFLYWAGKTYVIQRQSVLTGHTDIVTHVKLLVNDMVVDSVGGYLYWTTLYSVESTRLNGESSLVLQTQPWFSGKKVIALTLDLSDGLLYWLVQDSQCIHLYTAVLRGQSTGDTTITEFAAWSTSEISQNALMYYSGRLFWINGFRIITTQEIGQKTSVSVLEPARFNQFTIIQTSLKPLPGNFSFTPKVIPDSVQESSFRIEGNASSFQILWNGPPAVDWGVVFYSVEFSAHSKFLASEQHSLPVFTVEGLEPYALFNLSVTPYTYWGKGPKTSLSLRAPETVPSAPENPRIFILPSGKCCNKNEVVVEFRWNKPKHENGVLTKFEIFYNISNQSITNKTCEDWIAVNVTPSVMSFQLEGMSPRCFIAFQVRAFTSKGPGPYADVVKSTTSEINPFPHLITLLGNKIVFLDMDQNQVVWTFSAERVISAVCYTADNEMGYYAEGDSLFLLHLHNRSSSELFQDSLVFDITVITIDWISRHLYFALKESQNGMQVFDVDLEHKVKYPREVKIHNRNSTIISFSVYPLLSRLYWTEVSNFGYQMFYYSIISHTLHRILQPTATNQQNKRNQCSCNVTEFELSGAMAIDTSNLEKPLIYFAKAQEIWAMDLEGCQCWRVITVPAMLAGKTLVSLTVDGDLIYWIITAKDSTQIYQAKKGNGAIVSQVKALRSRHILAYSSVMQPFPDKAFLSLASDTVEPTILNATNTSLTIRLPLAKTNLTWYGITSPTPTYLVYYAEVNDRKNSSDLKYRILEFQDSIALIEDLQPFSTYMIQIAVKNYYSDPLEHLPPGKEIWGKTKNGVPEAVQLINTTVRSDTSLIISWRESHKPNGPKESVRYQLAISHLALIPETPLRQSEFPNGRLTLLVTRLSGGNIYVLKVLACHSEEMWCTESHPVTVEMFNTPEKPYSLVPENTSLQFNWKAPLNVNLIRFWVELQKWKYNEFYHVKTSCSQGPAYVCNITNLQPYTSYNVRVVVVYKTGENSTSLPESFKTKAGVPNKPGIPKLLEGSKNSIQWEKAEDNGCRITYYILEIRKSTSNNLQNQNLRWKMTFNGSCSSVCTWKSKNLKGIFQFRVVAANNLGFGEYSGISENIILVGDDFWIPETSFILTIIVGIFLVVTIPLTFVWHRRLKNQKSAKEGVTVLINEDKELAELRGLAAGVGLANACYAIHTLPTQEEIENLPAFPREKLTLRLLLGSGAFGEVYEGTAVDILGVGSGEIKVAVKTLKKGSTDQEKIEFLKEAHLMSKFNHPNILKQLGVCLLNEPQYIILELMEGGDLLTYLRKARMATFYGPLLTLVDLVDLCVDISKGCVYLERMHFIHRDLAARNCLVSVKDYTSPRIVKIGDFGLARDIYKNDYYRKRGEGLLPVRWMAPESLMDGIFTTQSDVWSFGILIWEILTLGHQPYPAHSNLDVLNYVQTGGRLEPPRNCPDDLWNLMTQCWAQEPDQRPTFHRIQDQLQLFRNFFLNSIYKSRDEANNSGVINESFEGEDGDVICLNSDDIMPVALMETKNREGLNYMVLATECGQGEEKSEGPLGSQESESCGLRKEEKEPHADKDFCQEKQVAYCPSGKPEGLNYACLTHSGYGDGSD

For `Cc1cnc(Nc2ccc(F)cc2Cl)nc1-c1c[nH]c(C(=O)N[C@H](CO)c2cccc(Cl)c2)c1`, the inhibition [1] was 0%, the inhibition [2] was 3% and the inhibition [3] was 43%.
